How the values were obtained:
Test in all cases: In vitro antifungal activity, microbroth dilution MIC
Assay type in all cases: cell-based
[1] = test system: Aspergillus furnigatus B. 19119; details: 4 to 48 hours; for Minimal inhibitory concentration(MIC), A furnigatus B. 19119: RPMI-1640, 35° C., no growth observed
Experimental: (§1) In vitro antifungal activities of the inventive antifungal compounds were evaluated using the test strains shown in Table VIII by the following microbroth dilution method which is a modified version of the procedure recommended by National Committee for Clinical Laboratory Standards(see National Committee for Clinical Laboratory Standards, 1992, Reference methods for broth dilution antifungal susceptibility testing of yeasts, Proposed standard M27-P, National Committee for clinical laboratory standards, Villanova, Pa; and National Committee for Clinical Laboratory Standards, 1995, Reference methods for broth dilution antifungal susceptibility testing of yeasts. Tentative standard M27-T, National Committee for clinical laboratory standards, Villanova, Pa).
(§2) Sabourad Dextrose Agar(Difco) was used as a culture medium, and RPMI-1640 broth(Sigma. Co. w/L-glutamine, wo/NaHCO3)(0.165 M MOPS, pH 7.0), as a dilution medium.
(§3) Each of the test strains were subcultured in Sabourad Dextrose Agar medium twice and a stain sample was taken from prominent colonies and suspended in sterile physiological saline solution in a cap tube. The turbidity of the suspension was adjusted to that of the Mcfarland 0.5 standard sample(approximately 10^6 CFU/ml). Then the suspension was diluted 500-fold with sterile RPMI-1640 liquid medium to 2×10^3 CFU/ml.
(§4) Each of the test compounds(the compounds obtained in Examples 1 to 150 and comparative compounds, i.e., fluconazole(FCZ) and itraconazole (ICZ)), was dissolved in DMSO to give a stock solution having a concentration of 4000 μg/ml and the stock solution was successively diluted to obtain test solutions having test compound concentrations of 200, 100, 50, 25, 12.5, 6.25, 3.13, 1.56, 0.78, 0.39, 0.20 and 0.10 μg/ml, respectively.
(§5) 0.1 ml portion of the test solutions were added to the wells of a sterile 96 well plate. Then, 0.1 ml portion of each of the test strain solutions were added successively to the wells and the plate was incubated at 35° C. for 4 to 48 hours.
(§6) Minimal inhibitory concentration(MIC) of each compound was defined as the concentration of the test compound where no growth of the strain could be observed.

[2] = test system: Aspergillus niger A. 16404; details: 4 to 48 hours; for Minimal inhibitory concentration(MIC), A. niger A. 16404: RPMI-1640, 35° C., no growth observed
Experimental: as §1, §2, §3, §4, §5, §6

[3] = test system: Candida albicans A. 10231; details: 4 to 48 hours; for Minimal inhibitory concentration(MIC), C. albicans A. 10231: RPMI-1640, 35° C., no growth observed
Experimental: as §1, §2, §3, §4, §5, §6

[4] = test system: Candida albicans C1-2; details: 4 to 48 hours; for Minimal inhibitory concentration(MIC), C. albicans C1-2: RPMI-1640, 35° C., no growth observed
Experimental: as §1, §2, §3, §4, §5, §6

[5] = test system: Candida albicans IFO. 1385; details: 4 to 48 hours; for Minimal inhibitory concentration(MIC), C. albicans IFO. 1385: RPMI-1640, 35° C., no growth observed
Experimental: as §1, §2, §3, §4, §5, §6

[6] = test system: Candida krusei K. 11655; details: 4 to 48 hours; for Minimal inhibitory concentration(MIC), C. krusei K. 11655: RPMI-1640, 35° C., no growth observed
Experimental: as §1, §2, §3, §4, §5, §6

[7] = test system: Candida parapsitosis A. 7330; details: 4 to 48 hours; for Minimal inhibitory concentration(MIC), C. parapsitosis A. 7330: RPMI-1640, 35° C., no growth observed
Experimental: as §1, §2, §3, §4, §5, §6

[8] = test system: Candida pseudotropicalis K. 11658; details: 4 to 48 hours; for Minimal inhibitory concentration(MIC), C. pseudotropicalis K. 11658: RPMI-1640, 35° C., no growth observed
Experimental: as §1, §2, §3, §4, §5, §6

[9] = test system: Candida tropicalis A. 13803; details: 4 to 48 hours; for Minimal inhibitory concentration(MIC), C. tropicalis A. 13803: RPMI-1640, 35° C., no growth observed
Experimental: as §1, §2, §3, §4, §5, §6

[10] = test system: Cryptococcus neoformans A. 34144; details: 4 to 48 hours; for Minimal inhibitory concentration(MIC), Cry. neoformans A. 34144: RPMI-1640, 35° C., no growth observed
Experimental: as §1, §2, §3, §4, §5, §6

[11] = test system: Cryptococcus neoformans B. 42419; details: 4 to 48 hours; for Minimal inhibitory concentration(MIC), Cry. neoformans B. 42419: RPMI-1640, 35° C., no growth observed
Experimental: as §1, §2, §3, §4, §5, §6

[12] = test system: Cryptococcus neoformans IFM. 40092; details: 4 to 48 hours; for Minimal inhibitory concentration(MIC), Cry. neoformans IFM. 40092: RPMI-1640, 35° C., no growth observed
Experimental: as §1, §2, §3, §4, §5, §6

[13] = test system: Torulopsis glabrata B. 16205; details: 4 to 48 hours; for Minimal inhibitory concentration(MIC), T. glabrata B. 16205: RPMI-1640, 35° C., no growth observed
Experimental: as §1, §2, §3, §4, §5, §6

[14] = test system: Trichophyton mentagrophytes A. 9129; details: 4 to 48 hours; for Minimal inhibitory concentration(MIC), T. mentagrophytes A. 9129: RPMI-1640, 35° C., no growth observed
Experimental: as §1, §2, §3, §4, §5, §6

[15] = test system: Trichophyton mentagrophytes B. 32663; details: 4 to 48 hours; for Minimal inhibitory concentration(MIC), T. mentagrophytes B. 32663: RPMI-1640, 35° C., no growth observed
Experimental: as §1, §2, §3, §4, §5, §6

Row | Minimal inhibitory concentration(MIC), A furnigatus B. 19119 [1] [µg/mL] | Minimal inhibitory concentration(MIC), A. niger A. 16404 [2] [µg/mL] | Minimal inhibitory concentration(MIC), C. albicans A. 10231 [3] [µg/mL] | Minimal inhibitory concentration(MIC), C. albicans C1-2 [4] [µg/mL] | Minimal inhibitory concentration(MIC), C. albicans IFO. 1385 [5] [µg/mL] | Minimal inhibitory concentration(MIC), C. krusei K. 11655 [6] [µg/mL] | Minimal inhibitory concentration(MIC), C. parapsitosis A. 7330 [7] [µg/mL] | Minimal inhibitory concentration(MIC), C. pseudotropicalis K. 11658 [8] [µg/mL] | Minimal inhibitory concentration(MIC), C. tropicalis A. 13803 [9] [µg/mL] | Minimal inhibitory concentration(MIC), Cry. neoformans A. 34144 [10] [µg/mL] | Minimal inhibitory concentration(MIC), Cry. neoformans B. 42419 [11] [µg/mL] | Minimal inhibitory concentration(MIC), Cry. neoformans IFM. 40092 [12] [µg/mL] | Minimal inhibitory concentration(MIC), T. glabrata B. 16205 [13] [µg/mL] | Minimal inhibitory concentration(MIC), T. mentagrophytes A. 9129 [14] [µg/mL] | Minimal inhibitory concentration(MIC), T. mentagrophytes B. 32663 [15] [µg/mL] | Structure (SMILES) | other results
1 | >100 | >100 | 100 | 100 | 3.13 | 100 | 100 | 25.0 | >100 | 1.56 | 1.56 | 0.20 | 50.0 | 6.25 | 3.13 | COc1ccc(C(=C(F)Oc2ccc(OCC3COC(Cn4cncn4)(c4ccc(Cl)cc4Cl)O3)cc2)C(F)(F)F)cc1 (mixture of isomers) [Ex. 121] | 
2 |  |  |  |  |  |  |  |  |  |  |  |  |  |  |  | FC(OCC1COC(Cn2ccnc2)(c2ccc(Cl)cc2Cl)O1)=C(c1ccc(F)cc1)C(F)(F)F (mixture of isomers) [Ex. 33] | Minimal inhibitory concentration (MIC) ([1]; A furnigatus B. 19119, RPMI-1640, 35° C.): 100 µg/mL; Minimal inhibitory concentration (MIC) ([2]; A. niger A. 16404, RPMI-1640, 35° C.): 100 µg/mL; Minimal inhibitory concentration (MIC) ([3]; C. albicans A. 10231, RPMI-1640, 35° C.): 6.25 µg/mL; Minimal inhibitory concentration (MIC) ([4]; C. albicans C1-2, RPMI-1640, 35° C.): 12.5 µg/mL; Minimal inhibitory concentration (MIC) ([5]; C. albicans IFO. 1385, RPMI-1640, 35° C.): 1.56 µg/mL; Minimal inhibitory concentration (MIC) ([6]; C. krusei K. 11655, RPMI-1640, 35° C.): 100 µg/mL; Minimal inhibitory concentration (MIC) ([7]; C. parapsitosis A. 7330, RPMI-1640, 35° C.): >100 µg/mL; Minimal inhibitory concentration (MIC) ([8]; C. pseudotropicalis K. 11658, RPMI-1640, 35° C.): 100 µg/mL; Minimal inhibitory concentration (MIC) ([9]; C. tropicalis A. 13803, RPMI-1640, 35° C.): 50.0 µg/mL; Minimal inhibitory concentration (MIC) ([10]; Cry. neoformans A. 34144, RPMI-1640, 35° C.): 1.56 µg/mL; Minimal inhibitory concentration (MIC) ([11]; Cry. neoformans B. 42419, RPMI-1640, 35° C.): 1.56 µg/mL; Minimal inhibitory concentration (MIC) ([12]; Cry. neoformans IFM. 40092, RPMI-1640, 35° C.): 0.78 µg/mL; Minimal inhibitory concentration (MIC) ([13]; T. glabrata B. 16205, RPMI-1640, 35° C.): 25.0 µg/mL; Minimal inhibitory concentration (MIC) ([14]; T. mentagrophytes A. 9129, RPMI-1640, 35° C.): 25.0 µg/mL; Minimal inhibitory concentration (MIC) ([15]; T. mentagrophytes B. 32663, RPMI-1640, 35° C.): 12.5 µg/mL
3 | >100 | >100 | 100 | 100 | 3.13 | 100 | 100 | 25.0 | >100 | 1.56 | 1.56 | 0.20 | 50.0 | 6.25 | 3.13 | FC(Oc1ccc(OCC2COC(Cn3ccnc3)(c3ccc(F)cc3F)O2)cc1)=C(c1cc(Cl)cc(Cl)c1)C(F)(F)F (mixture of isomers) [Ex. 116] | 

— US6376497B1, “Antifungal azole derivatives having a fluorinated vinyl group and process for preparing same” (Korea Research Institute of Chemical Technology, priority 1999, dated 2002)
